From the Kinase Knowledgebase extract (Sharma et al. 2016)

Tests used:
EGFR (human) = EGFR (human) (UniProt P00533)
[1] = molecular target: EGFR (human), P00533 [L858R]
[2] = molecular target: EGFR (Human), P00533 [T790M/L858R]
[3] = molecular target: EGFR (Human), P00533 [Assessment of EGFR-Del T790M Dependent Cell Proliferation in BaF3 Cells]
[4] = molecular target: EGFR (Human), P00533 [T790M/L858R]; details: baf3

EGFR (human), sequence (P00533 whole entry, looked up): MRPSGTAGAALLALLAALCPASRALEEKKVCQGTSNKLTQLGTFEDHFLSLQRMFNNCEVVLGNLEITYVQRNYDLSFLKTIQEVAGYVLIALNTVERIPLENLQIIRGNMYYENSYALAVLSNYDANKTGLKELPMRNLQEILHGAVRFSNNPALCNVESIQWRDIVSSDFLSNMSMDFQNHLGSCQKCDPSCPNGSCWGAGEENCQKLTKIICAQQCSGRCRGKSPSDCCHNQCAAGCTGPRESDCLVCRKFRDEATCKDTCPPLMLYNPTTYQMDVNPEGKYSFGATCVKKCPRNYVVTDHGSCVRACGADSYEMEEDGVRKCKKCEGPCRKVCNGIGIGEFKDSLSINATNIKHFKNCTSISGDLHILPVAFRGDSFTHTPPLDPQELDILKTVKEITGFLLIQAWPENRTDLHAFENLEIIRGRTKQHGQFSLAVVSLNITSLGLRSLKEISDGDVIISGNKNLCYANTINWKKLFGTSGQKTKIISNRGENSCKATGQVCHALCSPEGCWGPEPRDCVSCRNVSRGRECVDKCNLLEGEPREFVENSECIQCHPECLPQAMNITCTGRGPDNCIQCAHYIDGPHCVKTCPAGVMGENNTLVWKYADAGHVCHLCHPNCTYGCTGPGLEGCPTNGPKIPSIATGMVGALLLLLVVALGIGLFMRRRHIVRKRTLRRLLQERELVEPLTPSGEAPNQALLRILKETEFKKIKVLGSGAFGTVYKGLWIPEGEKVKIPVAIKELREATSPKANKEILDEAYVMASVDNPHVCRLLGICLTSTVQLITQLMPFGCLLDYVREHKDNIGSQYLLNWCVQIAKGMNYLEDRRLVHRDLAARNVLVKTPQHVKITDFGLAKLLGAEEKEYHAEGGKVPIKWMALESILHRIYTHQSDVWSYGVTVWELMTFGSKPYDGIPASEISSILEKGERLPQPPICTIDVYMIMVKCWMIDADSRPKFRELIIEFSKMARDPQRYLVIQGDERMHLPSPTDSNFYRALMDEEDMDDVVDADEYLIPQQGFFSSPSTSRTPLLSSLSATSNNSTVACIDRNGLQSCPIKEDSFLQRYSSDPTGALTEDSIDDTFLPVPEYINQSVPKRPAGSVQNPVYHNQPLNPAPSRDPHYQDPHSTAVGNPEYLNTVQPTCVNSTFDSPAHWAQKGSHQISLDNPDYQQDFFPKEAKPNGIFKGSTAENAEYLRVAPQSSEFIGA
EGFR (Human), P00533 [Assessment of EGFR-Del T790M Dependent Cell Proliferation in BaF3 Cells], sequence (P00533 whole entry, looked up, stated change not applied): as the sequence (P00533 whole entry, looked up) above
EGFR (Human), P00533 [T790M/L858R], sequence (P00533 whole entry T790M/L858R, looked up): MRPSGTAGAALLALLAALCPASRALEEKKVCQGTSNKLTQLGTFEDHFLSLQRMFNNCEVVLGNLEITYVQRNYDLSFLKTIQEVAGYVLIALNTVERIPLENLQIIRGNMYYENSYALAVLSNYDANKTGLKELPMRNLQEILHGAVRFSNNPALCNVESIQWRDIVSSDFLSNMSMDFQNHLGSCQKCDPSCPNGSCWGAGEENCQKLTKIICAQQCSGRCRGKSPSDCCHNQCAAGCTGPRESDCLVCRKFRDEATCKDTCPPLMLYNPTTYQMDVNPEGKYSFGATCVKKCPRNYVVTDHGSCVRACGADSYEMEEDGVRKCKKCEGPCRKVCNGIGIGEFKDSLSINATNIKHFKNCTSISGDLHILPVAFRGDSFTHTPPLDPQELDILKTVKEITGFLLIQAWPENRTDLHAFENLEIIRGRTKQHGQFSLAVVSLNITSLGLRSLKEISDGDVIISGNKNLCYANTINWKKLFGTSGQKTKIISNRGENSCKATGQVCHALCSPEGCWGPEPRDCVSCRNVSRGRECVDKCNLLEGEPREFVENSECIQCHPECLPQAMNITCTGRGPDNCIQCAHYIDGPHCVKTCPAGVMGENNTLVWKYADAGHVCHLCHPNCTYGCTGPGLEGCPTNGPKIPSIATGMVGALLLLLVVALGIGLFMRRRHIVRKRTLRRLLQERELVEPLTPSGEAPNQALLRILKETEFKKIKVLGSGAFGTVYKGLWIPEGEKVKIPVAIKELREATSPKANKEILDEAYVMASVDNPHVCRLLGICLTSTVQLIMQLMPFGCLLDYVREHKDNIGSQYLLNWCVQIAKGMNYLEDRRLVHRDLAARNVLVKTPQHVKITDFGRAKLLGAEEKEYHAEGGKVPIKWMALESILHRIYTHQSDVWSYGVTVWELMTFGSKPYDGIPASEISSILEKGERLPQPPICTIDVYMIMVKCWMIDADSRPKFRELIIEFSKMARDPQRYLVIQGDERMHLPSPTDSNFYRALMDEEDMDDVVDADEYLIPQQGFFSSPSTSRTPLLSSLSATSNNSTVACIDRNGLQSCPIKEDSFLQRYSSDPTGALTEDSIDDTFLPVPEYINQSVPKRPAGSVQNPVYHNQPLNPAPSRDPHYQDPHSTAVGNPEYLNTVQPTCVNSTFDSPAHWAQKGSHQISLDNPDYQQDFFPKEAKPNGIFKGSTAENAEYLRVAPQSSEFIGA
EGFR (human), P00533 [L858R], sequence (P00533 whole entry L858R, looked up): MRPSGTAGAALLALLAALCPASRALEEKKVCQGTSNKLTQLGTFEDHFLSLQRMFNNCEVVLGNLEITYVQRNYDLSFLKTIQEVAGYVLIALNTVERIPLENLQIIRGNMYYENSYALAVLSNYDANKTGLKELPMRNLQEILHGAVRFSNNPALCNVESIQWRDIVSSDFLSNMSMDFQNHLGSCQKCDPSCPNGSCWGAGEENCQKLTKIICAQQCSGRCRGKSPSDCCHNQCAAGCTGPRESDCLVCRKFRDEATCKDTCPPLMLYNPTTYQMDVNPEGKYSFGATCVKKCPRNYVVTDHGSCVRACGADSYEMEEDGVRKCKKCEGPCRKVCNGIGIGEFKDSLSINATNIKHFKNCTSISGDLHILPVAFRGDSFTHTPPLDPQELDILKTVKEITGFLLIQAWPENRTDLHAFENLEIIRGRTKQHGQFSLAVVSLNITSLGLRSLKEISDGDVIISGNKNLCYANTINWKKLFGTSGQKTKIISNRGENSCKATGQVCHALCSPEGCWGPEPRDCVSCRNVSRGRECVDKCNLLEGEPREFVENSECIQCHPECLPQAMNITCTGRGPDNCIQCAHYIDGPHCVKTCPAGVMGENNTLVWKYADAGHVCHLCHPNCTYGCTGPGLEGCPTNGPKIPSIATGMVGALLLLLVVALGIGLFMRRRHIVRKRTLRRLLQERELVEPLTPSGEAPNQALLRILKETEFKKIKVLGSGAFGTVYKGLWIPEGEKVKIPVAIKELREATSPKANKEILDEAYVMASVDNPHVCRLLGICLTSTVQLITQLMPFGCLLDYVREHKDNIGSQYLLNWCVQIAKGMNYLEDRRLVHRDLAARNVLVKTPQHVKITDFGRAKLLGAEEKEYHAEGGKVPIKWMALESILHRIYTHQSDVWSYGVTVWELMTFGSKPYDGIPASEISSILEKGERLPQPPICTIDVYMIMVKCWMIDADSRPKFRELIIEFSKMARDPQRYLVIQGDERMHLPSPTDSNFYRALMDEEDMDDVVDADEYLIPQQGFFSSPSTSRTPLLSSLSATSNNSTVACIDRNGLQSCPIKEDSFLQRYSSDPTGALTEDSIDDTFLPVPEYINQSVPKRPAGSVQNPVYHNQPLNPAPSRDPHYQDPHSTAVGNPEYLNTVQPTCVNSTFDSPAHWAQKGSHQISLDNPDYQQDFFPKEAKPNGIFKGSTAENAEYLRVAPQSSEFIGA

IC50 (EGFR (human))	IC50 [1]	IC50 [2]	IC50 [3]	IC50 [4]	SMILES
< 0.05 µM	< 0.05 µM	< 0.05 µM	< 0.05 µM	< 0.05 µM	C=CC(=O)Nc1cc(Nc2ncc(Cl)c(Nc3ccccc3P(C)(C)=O)n2)c(OC)cc1C#CCN(C)C
< 0.05 µM	< 0.05 µM	< 0.05 µM	< 0.05 µM	< 0.05 µM	C=CC(=O)Nc1cc(Nc2ncc(C3CC3)c(Nc3ccccc3P(C)(C)=O)n2)c(OC)cc1N(C)CCN(CC)CC
< 0.05 µM	< 0.05 µM	< 0.05 µM	< 0.05 µM	< 0.05 µM	C=CC(=O)Nc1cc(Nc2ncc(Cl)c(Nc3ccccc3P(C)(C)=O)n2)c(OC)cc1N1CC(N2CCCC2)C1
< 0.05 µM	< 0.05 µM	< 0.05 µM	< 0.05 µM	< 0.05 µM	C=CC(=O)Nc1cc(Nc2ncc(Cl)c(Nc3ccccc3P(C)(C)=O)n2)c(OC)cc1C#CC(C)(C)N(CC)CC
< 0.05 µM	< 0.05 µM	< 0.05 µM	< 0.05 µM	< 0.05 µM	COCC#CC(=O)Nc1cc(Nc2ncc(Cl)c(Nc3ccccc3P(C)(C)=O)n2)c(OC)cc1N1CCC(N(C)C)C1 (stereo not given)
< 0.05 µM	< 0.05 µM	< 0.05 µM	< 0.05 µM	0.101 to 0.25 µM	C=CC(=O)Nc1cc(Nc2ncc(Cl)c(Nc3ccccc3P(C)(C)=O)n2)c(OC)cc1N1CCC(N(C)CCN(CC)CC)C1 (stereo not given)
< 0.05 µM	< 0.05 µM	< 0.05 µM	< 0.05 µM	< 0.05 µM	C=CC(=O)Nc1cc(Nc2ncc(Cl)c(Nc3ccccc3P(C)(C)=O)n2)c(OC)cc1O[C@@H](COC)CN(C)C
0.101 to 0.25 µM	< 0.05 µM	< 0.05 µM	< 0.05 µM	< 0.05 µM	C=C(C)C(=O)Nc1cc(Nc2ncc(Cl)c(Nc3ccccc3P(C)(C)=O)n2)c(OC)cc1N1CC[C@@H](N(C)C)C1
< 0.05 µM	< 0.05 µM	< 0.05 µM	< 0.05 µM	< 0.05 µM	C=CC(=O)Nc1cc(Nc2ncc(Cl)c(Nc3ccccc3P(C)(C)=O)n2)c(OC)cc1N1CCC(N(C)CCOC)C1 (stereo not given)
< 0.05 µM	< 0.05 µM	< 0.05 µM	< 0.05 µM	< 0.05 µM	C=CC(=O)Nc1cc(Nc2ncc(Cl)c(Nc3ccccc3P(C)(C)=O)n2)c(OC)cc1N1CCC(N2CCCC2)C1 (stereo not given)
< 0.05 µM	< 0.05 µM	< 0.05 µM	< 0.05 µM	< 0.05 µM	C=CC(=O)Nc1cc(Nc2ncc(Cl)c(Nc3ccccc3P(C)(C)=O)n2)c(OC)cc1OC(COCC)CN(C)C (stereo not given)
< 0.05 µM	< 0.05 µM	< 0.05 µM	0.05 to 0.1 µM	0.101 to 0.25 µM	C=CC(=O)Nc1cc(Nc2ncc(Cl)c(Nc3ccccc3P(C)(C)=O)n2)c(OC)cc1N1CCC(O)C1 (stereo not given)
< 0.05 µM	< 0.05 µM	< 0.05 µM	< 0.05 µM	< 0.05 µM	C=CC(=O)Nc1cc(Nc2ncc(Cl)c(Nc3ccccc3P(C)(C)=O)n2)c(OC)cc1OCC1CCCCN1C (stereo not given)

Further lines, the molecule ahead of its results:

SMILES	IC50 (EGFR (human))	IC50 [1]	IC50 [2]	IC50 [3]	IC50 [4]
C=CC(=O)Nc1cc(Nc2ncc(Cl)c(Nc3ccccc3P(C)(C)=O)n2)c(OC)cc1C#CCN1CCCCCC1	< 0.05 µM	< 0.05 µM	< 0.05 µM	< 0.05 µM	< 0.05 µM
C=CC(=O)Nc1ccc(OC)c(Nc2ncc(Cl)c(Nc3ccc(OC4CCOC4)cc3P(C)(C)=O)n2)c1 (stereo not given)	< 0.05 µM	< 0.05 µM	< 0.05 µM	< 0.05 µM	0.05 to 0.1 µM
C=CC(=O)Nc1cc(Nc2ncc(Cl)c(Nc3ccccc3P(C)(C)=O)n2)c(OC)cc1OCc1cccnc1	0.05 to 0.1 µM	< 0.05 µM	< 0.05 µM	0.05 to 0.1 µM	0.101 to 0.25 µM
COc1cc(F)c(NC(=O)/C=C/Cl)cc1Nc1ncc(Cl)c(Nc2ccccc2P(C)(C)=O)n1	< 0.05 µM	< 0.05 µM	< 0.05 µM	< 0.05 µM	< 0.05 µM
C=CC(=O)Nc1ccc(OC(F)(F)F)c(Nc2ncc(Cl)c(Nc3ccccc3P(C)(C)=O)n2)c1	< 0.05 µM	< 0.05 µM	< 0.05 µM	< 0.05 µM	< 0.05 µM
C=CC(=O)Nc1cc(Nc2ncc(Cl)c(Nc3ccccc3P(C)(C)=O)n2)c(OC)cc1C#CCN1CCCCC1	< 0.05 µM	< 0.05 µM	< 0.05 µM	< 0.05 µM	< 0.05 µM
C=CC(=O)Nc1cc(Nc2ncc(Cl)c(Nc3ccccc3P(C)(C)=O)n2)c(Cl)cc1C#CCN(C)C	< 0.05 µM	< 0.05 µM	< 0.05 µM	< 0.05 µM	< 0.05 µM
COCC1CCCN1CCC#CC(=O)Nc1cc(Nc2ncc(Cl)c(Nc3ccccc3P(C)(C)=O)n2)c(OC)cc1N1CCOCC1 (stereo not given)	< 0.05 µM	< 0.05 µM	< 0.05 µM	< 0.05 µM	< 0.05 µM
C=CC(=O)Nc1cc(Nc2ncc(Cl)c(Nc3ccccc3P(C)(C)=O)n2)c(OC)cc1C#CCN1CCN(C)CC1	< 0.05 µM	< 0.05 µM	< 0.05 µM	< 0.05 µM	0.101 to 0.25 µM
COc1ccc(NC(=O)C#CC(C)(C)N2CCCC2)cc1Nc1ncc(Cl)c(Nc2ccccc2P(C)(C)=O)n1	< 0.05 µM	< 0.05 µM	< 0.05 µM	< 0.05 µM	< 0.05 µM
C=CC(=O)Nc1ccc(OC)c(Nc2ncc(Cl)c(Nc3ccc(OCCCN(C)C)cc3P(C)(C)=O)n2)c1	< 0.05 µM	< 0.05 µM	< 0.05 µM	< 0.05 µM	< 0.05 µM
C=CC(=O)Nc1cc(Nc2ncc(Cl)c(Nc3ccccc3P(C)(C)=O)n2)c(OC)cc1OCc1ccncc1	< 0.05 µM	< 0.05 µM	< 0.05 µM	< 0.05 µM	0.101 to 0.25 µM
COc1cc(N2CCOCC2)c(NC(=O)C#CCCN2CCN(C)CC2)cc1Nc1ncc(Cl)c(Nc2ccccc2P(C)(C)=O)n1	< 0.05 µM	< 0.05 µM	< 0.05 µM	< 0.05 µM	< 0.05 µM
C=CC(=O)Nc1cc(Nc2ncc(Cl)c(Nc3ccccc3P(C)(C)=O)n2)c(OC)cc1C#CCN(C)C(C)C	< 0.05 µM	< 0.05 µM	< 0.05 µM	< 0.05 µM	< 0.05 µM
C=C(CN1CCCC1)C(=O)Nc1ccc(OC)c(Nc2ncc(Cl)c(Nc3ccccc3P(C)(C)=O)n2)c1	< 0.05 µM	< 0.05 µM	< 0.05 µM	< 0.05 µM	< 0.05 µM
C=CC(=O)Nc1cc(Nc2ncc(Cl)c(Nc3ccccc3P(C)(C)=O)n2)c(OC)cc1OC1CCCN(CCOC)C1 (stereo not given)	< 0.05 µM	< 0.05 µM	< 0.05 µM	< 0.05 µM	< 0.05 µM
COc1ccc(NC(=O)CCl)cc1Nc1ncc(Cl)c(Nc2ccccc2P(C)(C)=O)n1	< 0.05 µM	< 0.05 µM	< 0.05 µM	< 0.05 µM	< 0.05 µM
C=CC(=O)Nc1ccc(OC)c(Nc2ncc(Cl)c(Nc3ccc(OCC4CCOCC4)cc3P(C)(C)=O)n2)c1	0.05 to 0.1 µM	< 0.05 µM	< 0.05 µM	< 0.05 µM	< 0.05 µM
C=CC(=O)Nc1cc(Nc2ncc(Cl)c(Nc3ccccc3P(C)(C)=O)n2)c(OC)cc1OC(COC)CN(C)C (stereo not given)	< 0.05 µM	< 0.05 µM	< 0.05 µM	< 0.05 µM	< 0.05 µM
C=C(CN1CCN(CCO)CC1)C(=O)Nc1ccc(OC)c(Nc2ncc(Cl)c(Nc3ccccc3P(C)(C)=O)n2)c1	< 0.05 µM	< 0.05 µM	< 0.05 µM	< 0.05 µM	< 0.05 µM
COc1cc(F)c(NC(=O)C#CC(C)(C)N2CCCC2)cc1Nc1ncc(Cl)c(Nc2ccccc2P(C)(C)=O)n1	< 0.05 µM	< 0.05 µM	< 0.05 µM	< 0.05 µM	< 0.05 µM
COc1cc(N2CCOCC2)c(NC(=O)C#CCCN2CCCCC2)cc1Nc1ncc(Cl)c(Nc2ccccc2P(C)(C)=O)n1	< 0.05 µM	< 0.05 µM	< 0.05 µM	< 0.05 µM	< 0.05 µM
C=CC(=O)Nc1cc(Nc2ncc(Cl)c(Nc3ccc(OCCN4CCCC4)cc3P(C)(C)=O)n2)c(OC)cc1F	< 0.05 µM	< 0.05 µM	< 0.05 µM	< 0.05 µM	< 0.05 µM
C=CC(=O)Nc1ccc(Nc2ncc(Cl)c(Nc3cccc(OCCN4CCCCC4)c3P(C)(C)=O)n2)c(OC)c1	0.101 to 0.25 µM	< 0.05 µM	< 0.05 µM	< 0.05 µM	0.101 to 0.25 µM
C=CC(=O)Nc1cc(Nc2ncc(Cl)c(Nc3ccccc3P(C)(C)=O)n2)c(OC)cc1C#CCNC	< 0.05 µM	< 0.05 µM	< 0.05 µM	< 0.05 µM	< 0.05 µM
C=CC(=O)Nc1cc(Nc2ncc(Cl)c(Nc3ccccc3P(C)(C)=O)n2)c(Cl)cc1OC(COC)CN(C)C (stereo not given)	< 0.05 µM	< 0.05 µM	< 0.05 µM	< 0.05 µM	< 0.05 µM
C=C(CN1CCC(N2CCN(C)CC2)CC1)C(=O)Nc1ccc(OC)c(Nc2ncc(Cl)c(Nc3ccccc3P(C)(C)=O)n2)c1	< 0.05 µM	< 0.05 µM	< 0.05 µM	< 0.05 µM	< 0.05 µM
CC#CC(=O)Nc1cc(Nc2ncc(Cl)c(Nc3ccccc3P(C)(C)=O)n2)c(OC)cc1N1CCC(N2CCN(C)CC2)CC1	0.05 to 0.1 µM	< 0.05 µM	< 0.05 µM	< 0.05 µM	< 0.05 µM
C=CC(=O)Nc1ccc(OC)c(Nc2ncc(Cl)c(Nc3ccc(OCCN4CCCCC4)cc3P(C)(C)=O)n2)c1	< 0.05 µM	< 0.05 µM	< 0.05 µM	< 0.05 µM	< 0.05 µM
C=CC(=O)Nc1cc(Nc2ncc(Cl)c(Nc3ccccc3P(C)(C)=O)n2)c(OC)cc1CN1CCN(C)CC1	< 0.05 µM	< 0.05 µM	< 0.05 µM	< 0.05 µM	0.05 to 0.1 µM
